In patent publication US20240239786A1, “COMPOSITIONS AND METHODS FOR THE TREATMENT AND PREVENTION OF CANCER” (Yale University, priority 2021, published 2024):

Experiments:
T cells = assay: PBMC T cell co-culture with PEO4 cells activated by CD3-CD28 beads; format: cell-based; conditions: PBMCs co-cultured with treated PEO4 cells
Excerpt: FIG. 23 depicts representative effects of DB4 or triapine on peripheral blood mononuclear cells (PBMCs) containing T cells that were co-cultured with BRCA-mutated PEO1 and BRCA-wild type PEO4 cells and activated by CD3-CD28 beads. PEO1 cells suppressed CD8-positive activated T cells.
FIG. 24 depicts representative effects of DB4 or triapine on peripheral blood mononuclear cells (PBMCs) containing T cells that were co-cultured with BRCA-mutated PEO1 and BRCA-wild type PEO4 cells and activated by CD3-CD28 beads. PEO1 cells increased PD1 and LAG3-positive exhausted T cells.
Further experiments were conducted using PBMCs containing T cells that were co-cultured with PEO1 or PEO4 cells and activated by CD3-CD28 beads (FIG. 23). […] Both DB4 and triapine are RNR inhibitors. As such, although not bound by any particular theory, it was hypothesized that DB4 turned BRCA-wild type EOC into immunogenic “hot” tumors. DB4 promoted an increase in tumor neoantigens and the recruitment of tumor infiltrating lymphocytes (TILs) to tumor stroma, which enabled an effective antitumor response elicited by immune checkpoint inhibitors.

CDK2 activity = assay: Western blot time course of CDK2 activity in PEO4 cells; format: cell-based; conditions: for level of phosphorylated histone H1 (readout of CDK2 activity) / levels of cyclin A2 and CDK2 phosphorylation: 30 μM DB4 or 1 μM triapine; for levels of cyclin A2 and CDK2 phosphorylation: 24 hr
Protocol: PEO1 cells were treated with 30 μM DB4 or 1 μM triapine for indicated times, pulsed with EdU for 1 hr and subsequently assayed for DNA synthesis inhibition as described in FIG. 2B. The bivariate plots of Alexa Fluor 488 and PE-Cy5 were gated to determine % S phase cells. […] PEO4 cells were treated with 30 μM DB4 or 1 μM triapine for indicated times, pulsed with EdU for 1 hr and subsequently assayed for DNA synthesis inhibition as described in FIG. 2B. The bivariate plots of Alexa Fluor 488 and PE-Cy5 were gated to determine % S phase cells. […] The bivariate plots of Alexa Fluor 488 and PE-Cy5 shown in FIG. 6A and FIG. 6B were gated to determine % cells in G1, S, and G2/M phases. […] PEO4 cells were treated with 30 μM DB4 or 1 μM triapine for various time periods and subjected to western blot analysis for the levels of cyclin A2, p-CDK1/2, p-H1, p-Chk1, and HSC70. The HSC70 protein level was used as a loading control. Cropped gel images of protein bands are presented. Cyclin A2, p-CDK1/2, and p-H1 bands were from re-probing the same blot. p-Chk1 and HSC70 bands were from re-probing the same duplicated blot. […] The CDK2 activity is expressed by the percentage of the p-HI levels relative to that of the 0 hr control is shown. […] Protein was analyzed by western blotting for p-Chk1, p-ATR, p-RPA32, γH2AX, and HSC70. Cropped gel images of protein bands are presented. All protein bands were from re-probing the same blot. DSB end resection is assessed by the level of p-RPA32.
Additional studies focused on determining how DB4 inhibited CDK2 activity in comparison with triapine. […] In contrast, triapine increased the levels of cyclin A2 and CDK2 phosphorylation evidently at 24 hr. Because CDK2 phosphorylation is inhibitory, the level of phosphorylated histone H1, a substrate of CDK2, was determined as a readout of CDK2 activity (Lin Z P et al., 2014, Molecular Cancer Res, 12:381-393) to reconcile this discrepancy. […] The kinetics of CDK2 activity somewhat resembled to the level of DNA synthesis caused by DB4 and triapine.
The methodology was described previously (Lin Z P et al., 2014, Molecular Cancer Res, 12:381-393; Ratner E S et al., 2016, Br J Cancer, 114:777-786). The anti-HSC70 antibody was purchased from Santa Cruz (Santa Cruz, CA). Anti-cyclin A2, anti-phospho-ATR (Thr-1981), anti-phospho-Chk1 (Ser-345), anti-phospho-CDK1/2 (Tyr-15), and anti-Y-H2AX (Ser-139) antibodies were from Cell Signaling (Danvers, MA). Anti-phospho-RPA32 (S4/S8) and anti-BRCA2 antibodies were from Bethyl Laboratories (Montgomery, TX). Anti-phospho-histone H1 antibody was from Millipore-Sigma (Burlington, MA). To avoid the cross-reaction of secondary antibodies with previously probed primary antibodies, blots were stripped and re-probed with next primary antibodies raised in a different species in an alternate fashion. All images were acquired and processed using the G: BOX gel documentation system and the GeneSnap software (Syngene, Frederick, MD). Brightness and contrast of images were applied equally across the entire gel/blot image and to controls. Images of protein bands were cropped and only brightness-adjusted using the PowerPoint software (Microsoft, Redmond, WA). Quantification of the protein band intensity was performed using the ImageJ software (NIH, Bethesda, MD).

Compound | T cell activation and exhaustion in co-culture with drug-treated PEO4 cells (T cells) | level of phosphorylated histone H1 (readout of CDK2 activity) (CDK2 activity) | levels of cyclin A2 and CDK2 phosphorylation (CDK2 activity) | Chk1 phosphorylation (CDK2 activity; time course, drug alone)
C=CCn1c(SCc2cccc(Cl)c2)nnc1C1CCN(Cc2nc3ccccc3s2)CC1 [DB4, 2-[(4-{4-allyl-5-[(3-chlorobenzyl)thio]-4H-1,2,4-triazol-3-yl}-1-piperidinyl)methyl]-1,3-benzothiazole] | suppressing T cell activation and enhancing T cell exhaustion | down-regulation of phosphorylated histone H1 at 24 hr | downregulated | did not induced Chk1 phosphorylation
NC(=S)NN=Cc1ncccc1N [triapine, 3-aminopyridine-2-carboxaldehyde-thiosemicarbazone, reference compound] | suppressing T cell activation and enhancing T cell exhaustion | reduced the level of phosphorylated histone H1 earlier starting at 3 hr | increased | 
